“And” between values parts separate entries of the source, which are not always exact repeats. Identical values can stand only once.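 48-hour exposure; five concentrations; linearly interpolated endpoints. GI50 marks 50% less growth. TGI marks complete inhibition of growth.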
Tests used:
Assay in all cases: DTP human tumour cell line panel, 48 h
A549 NSCLC = system: A549 NSCLC
CAKI-1 renal = system: CAKI-1 renal
EKVX NSCLC = system: EKVX NSCLC
HL-60(TB) leukemia = system: HL-60(TB) leukemia
HOP-92 NSCLC = system: HOP-92 NSCLC
LOX IMVI melanoma = system: LOX IMVI melanoma
RXF 393 renal = system: RXF 393 renal
SK-MEL-28 melanoma = system: SK-MEL-28 melanoma
SK-MEL-5 melanoma = system: SK-MEL-5 melanoma
SNB-75 CNS = system: SNB-75 CNS

| SMILES | GI50 (A549 NSCLC) | TGI (A549 NSCLC) | GI50 (CAKI-1 renal) | TGI (CAKI-1 renal) | GI50 (EKVX NSCLC) | TGI (EKVX NSCLC) | GI50 (HL-60(TB) leukemia) | TGI (HL-60(TB) leukemia) | GI50 (HOP-92 NSCLC) | TGI (HOP-92 NSCLC) | GI50 (LOX IMVI melanoma) | TGI (LOX IMVI melanoma) | GI50 (RXF 393 renal) | TGI (RXF 393 renal) | GI50 (SK-MEL-28 melanoma) | TGI (SK-MEL-28 melanoma) | GI50 (SK-MEL-5 melanoma) | TGI (SK-MEL-5 melanoma) | TGI (SNB-75 CNS) | GI50 (SNB-75 CNS) |
| --- | --- | --- | --- | --- | --- | --- | --- | --- | --- | --- | --- | --- | --- | --- | --- | --- | --- | --- | --- | --- |
| COc1ccc(C2=CSc3cc(Cl)c(C)cc3S(=O)(=O)N2C(C)=O)cc1 | 27.4 µM | 65 µM | 11.5 µM | 32.9 µM | 38.2 µM | > 100 µM | 17.2 µM | 43.7 µM | 21.9 µM | > 100 µM | 21 µM | > 100 µM | 35.6 µM | > 100 µM | 56 µM | > 100 µM | 19.9 µM | 48.5 µM |  |  |
| CCN(CC)CC(C(=O)Nc1c(C)cccc1C)/C(C)=N\NC(=O)C[N+](C)(C)C (centres undefined) |  | > 100 µM |  | > 100 µM |  |  |  | > 100 µM |  | > 100 µM |  | > 100 µM |  | > 100 µM |  | > 100 µM |  | > 100 µM | > 100 µM |  |
| Cn1ccnc1C(=O)/C=C/c1ccc(CC(=O)Nc2ccc(Br)cc2)cc1 | 4.68 µM | 13.2 µM | 3.59 µM | 11.6 µM | 2.76 µM | 11.7 µM | 4.58 µM | > 16.7 µM | 3.15 µM | 8.26 µM | 2.07 µM | 4.28 µM | 3.12 µM | 6.03 µM | 3.32 µM | 7.63 µM | 3.58 µM | 8.25 µM | > 16.7 µM | 3.05 µM |
| NC(CSC(c1ccccc1)(c1ccccc1)c1ccc2c(c1)OCO2)C(=O)O (centres undefined) | 0.635 µM | > 100 µM | 5.14 µM | > 100 µM | 0.625 µM | 79.4 µM | 0.313 µM | 0.836 µM | 0.75 µM | 36.9 µM | 0.577 µM | > 43.6 µM | 0.499 µM | 54.1 µM | 0.799 µM | 98.5 µM | 0.365 µM | 5.01 µM | 7.06 µM | 0.283 µM |
| O=C(O)C(Cc1ccccc1)N1C(=O)N/C(=C\c2ccc(F)cc2)C1=O (centres undefined) |  | > 100 µM |  | > 100 µM |  | > 100 µM |  | > 100 µM |  | > 100 µM |  | > 100 µM |  | > 100 µM |  |  |  | > 100 µM | > 100 µM |  |
| O=c1n(CC2CO2)c(=O)n(CC2CO2)n1CC1CO1 (centres undefined) | 5.9 µM | > 72 µM | 2.22 µM | 21.7 µM | 32.7 µM | > 100 µM | 4.99 µM | > 49.4 µM | 49.3 µM | > 100 µM | 16.7 µM | > 100 µM |  |  | > 53.1 µM | > 100 µM | 14.7 µM | > 79.9 µM | > 100 µM | 15.8 µM |
| Nc1cc2nc3ccccc3sc-2cc1=O | 2.06 µM | 4.82 µM | 5.66 µM | 22.1 µM |  |  | 2.07 µM | 5.78 µM | 2.77 µM | 9.59 µM | 1.48 µM | 3.74 µM | 2.13 µM | 6.14 µM | 2.12 µM | 4.04 µM | 1.55 µM | 2.93 µM | 7.71 µM | 2.59 µM |
| O=[S@@]1Nc2ccc(Br)cc2S1 |  | > 100 µM |  | > 100 µM |  | > 100 µM |  | 65.2 µM |  | > 100 µM |  | > 100 µM |  |  |  | > 100 µM |  | > 100 µM | > 100 µM |  |
| COc1c2ccoc2c(/C=C/C=O)c2oc(-c3ccccc3)cc(=O)c12 | 21.5 µM | > 100 µM | 15.4 µM | > 100 µM |  |  | 2.33 µM | 5.62 µM | 11.5 µM | > 100 µM | 1.48 µM | 2.8 µM | 4.26 µM | 14.7 µM | 2.73 µM | 9.17 µM | 3.04 µM | 12.3 µM | 67.1 µM | 8.3 µM |
| CCOC(=O)COc1cccc2c1C(=O)CCO2 |  | > 100 µM |  | > 100 µM |  | > 100 µM |  | > 100 µM |  |  |  | > 100 µM |  |  |  | > 100 µM |  | > 100 µM |  |  |
| CCNC1C2(CCCCC2)NC(=O)C12CCCCC2 (centres undefined) |  | > 100 µM |  | > 100 µM |  | > 100 µM |  | > 100 µM |  |  |  |  |  | > 100 µM |  | > 100 µM |  | > 100 µM | > 100 µM |  |
| CCCCCCCCSC1=CC(=O)c2nc3ccccc3c3ccnc1c23 | 83.2 µM | > 100 µM | 59.8 µM | > 100 µM | > 100 µM | > 100 µM | 16.3 µM | > 100 µM | 80 µM | > 100 µM | > 100 µM | > 100 µM |  |  | 42.7 µM | > 100 µM | 98.8 µM | > 100 µM | > 100 µM | > 100 µM |
| CC(=O)OC1COC(n2c(=S)n(-c3ccc(C)cc3)c(=O)c3ccccc32)C(OC(C)=O)C1OC(C)=O (centres undefined) |  | > 100 µM |  | > 100 µM |  | > 100 µM |  |  |  | > 100 µM |  | > 100 µM |  | > 100 µM |  | > 100 µM |  | > 100 µM | > 100 µM |  |
| COC(=O)[C@@H](C)C[C@H](Cc1ccc(F)cc1)NC(=O)c1csc([C@@H](C[C@H](C(C)C)N(C)C(=O)[C@@H](NC(=O)[C@H]2CCCCN2C)C(C)C)OC(C)=O)n1 | 0.00277 µM and 0.0107 µM | > 16.7 µM |  |  |  | > 16.7 µM |  | 0.00229 µM and 0.00952 µM | 0.215 µM and 0.0783 µM | 11.8 µM | 0.00184 µM and 0.0095 µM | > 16.7 µM |  |  | > 16.7 µM | > 16.7 µM |  |  | > 16.7 µM | 0.000986 µM and 0.00522 µM |
| CCOC(=O)Nc1nc2ccc(OCC)cc2s1 | 7.2 µM | > 100 µM | > 100 µM | > 100 µM |  |  | 7.56 µM | > 100 µM | > 62.7 µM | > 100 µM | 41.7 µM | > 100 µM | > 53.4 µM | > 100 µM | > 60.7 µM | > 100 µM | 5.56 µM | > 100 µM | > 100 µM | 22.7 µM |
| N#CC(C#N)=c1ccc(=C2NCC3CCCN23)cc1 (centres undefined) |  | > 100 µM |  | > 100 µM |  |  |  | > 100 µM |  | > 100 µM |  | > 100 µM |  | > 100 µM |  |  |  | > 100 µM | > 100 µM |  |

Source: PubChem BioAssay (NCI)
